Data from publication PMC12111648, “New Dimethoxyaryl-Sesquiterpene Derivatives with Cytotoxic Activity Against MCF-7 Breast Cancer Cells: From Synthesis to Topoisomerase I/II Inhibition and Cell Death Mechanism Studies” (International Journal of Molecular Sciences, 2025).

What was measured:
MCF-7 cells = experiment: MTT cytotoxicity assay on MCF-7 cells; assay type: cell-based, human; conditions: for IC50: Homo sapiens, MCF7, MTT, 48 h incubation, IC50 ± SD, three experiments in triplicate; for Selectivity Index (SI): SI = IC50 on MCF-10 cells/IC50 on MCF-7 cells
Method: In this study, we wondered whether semi-synthetic compounds have potential antitumoral properties against BC. Therefore, we were interested in investigating the effect of the compounds on the MCF-7 cell line. Firstly, we studied the effect on cell viability using a colorimetric MTT assay, which was performed to quantify the cytotoxic activity; each compound was evaluated at different concentrations (500−100−20−4−0.8−0.16−0.032−0 µM). Daunorubicin was also used as a positive control for comparison with a reference drug. […] Although the MCF-10 cell line provides a useful selectivity model, it may not fully represent the varying sensitivities of different normal cell types within a multicellular organism. The SI value indicates the ratio of toxicity in mammalian host cells to that in a tumoral cell. The data obtained in response to different concentrations of compounds were used to calculate the IC50 and corresponding SI values, as shown in Table 1.
The American Type Culture Collection (Rockville, MD, USA) supplied the following experimental cell lines: MCF-7, a human breast cancer cell line, and MCF-10A, a human epithelial breast cell line (ATCC N° CRL-10317). Both cell lines were grown in DMEM-F12 medium containing 10% FCS, 100 U/mL penicillin, 100 μg/mL streptomycin, and 1 mM glutamine. The cells were seeded at a concentration of 100 μL per well at a plating density of 3 × 10^3 cells/well and incubated for 24 h at 37 °C under 5% humidified CO2 to enable attachment. The cells were then treated with varying concentrations of synthesized compounds for […] under the same conditions. The compound stock solution was prepared in DMSO, and the final concentration of DMSO was kept at 0.1%. Control cultures were treated with only 1% ethanol.
Cells from the MCF-7 and MCF-10 lines were seeded into 96-well plates at a density of 1 × 10^4 per well. After 24 h, the compounds were added at increasing concentrations (500–100–20-4–0.8–0.16–0.032–0 µM), and the cells were incubated at 37 °C in a humidified 5% CO2/95% air mixture for 48 h. Following incubation, the cells were washed twice with PBS, and 100 μL of 0.5 mg/mL MTT solution was added to each well. After 2 h of incubation, the MTT solution was removed, and the formazan crystals were dissolved in 50 μL of DMSO per well. Absorbance was then measured at 570 nm using a microplate ELISA reader. IC50 values, determined from three independent experiments conducted in triplicate, were calculated using SigmaPlot® software (version 11.0). The selectivity index (SI) of each compound in each cell line was determined by calculating the ratio of the IC50 values for MCF-10 and cancer cell lines. Compounds were considered selective if SI values were equal to or greater than 3 [46].

human topoisomerase I = target: T1, human topoisomerase I (Homo sapiens, UniProt P11387); experiment: TOP1 DNA relaxation assay; assay type: biochemical; conditions: 20 μM
T1 construct: purchased Sigma-Aldrich (St. Louis, MO, USA)
T1 sequence (P11387 1-765): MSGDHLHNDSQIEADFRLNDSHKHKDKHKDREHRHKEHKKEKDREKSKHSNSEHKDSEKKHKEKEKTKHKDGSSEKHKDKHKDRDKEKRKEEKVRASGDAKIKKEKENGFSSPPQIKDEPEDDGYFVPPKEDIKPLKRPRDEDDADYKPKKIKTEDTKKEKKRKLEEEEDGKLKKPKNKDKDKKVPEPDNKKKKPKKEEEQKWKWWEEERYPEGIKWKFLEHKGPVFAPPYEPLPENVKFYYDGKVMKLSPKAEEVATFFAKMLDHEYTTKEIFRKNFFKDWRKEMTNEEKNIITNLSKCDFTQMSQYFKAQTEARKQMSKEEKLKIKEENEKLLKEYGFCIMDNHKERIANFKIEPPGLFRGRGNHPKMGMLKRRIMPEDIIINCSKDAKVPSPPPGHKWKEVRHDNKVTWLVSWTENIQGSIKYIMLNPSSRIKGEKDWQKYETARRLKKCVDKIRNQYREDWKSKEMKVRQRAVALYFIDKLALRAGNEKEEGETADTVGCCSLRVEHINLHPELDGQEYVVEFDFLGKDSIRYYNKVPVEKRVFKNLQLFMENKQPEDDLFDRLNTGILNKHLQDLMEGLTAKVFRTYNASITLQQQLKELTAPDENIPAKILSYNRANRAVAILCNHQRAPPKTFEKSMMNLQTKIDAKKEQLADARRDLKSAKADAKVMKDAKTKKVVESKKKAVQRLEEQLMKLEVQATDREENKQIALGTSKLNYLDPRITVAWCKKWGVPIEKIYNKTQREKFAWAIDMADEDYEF
Method: The ability to relax DNA conformations is a central function of topoisomerase enzymes. Several studies have associated some proapoptotic compounds with the ability to inhibit topoisomerase enzymes. The ability of the selected compounds to inhibit TOP1 or TOP2 activity was determined. In this experiment, daunorubicin was used as a positive control for TOP1/2 inhibition, as previously reported. […] It is important to note the potential for cardiotoxicity associated with some TOP2 inhibitors, which highlights the relevance of assessing compound 14c’s interaction with TOP2B. […] Future studies should include assays to evaluate the specific activity of 14c against both TOP2A and TOP2B to provide a more comprehensive safety profile, as isoform-selective TOP2 inhibitors may offer a therapeutic advantage by reducing adverse effects.
TOP1 activity was assayed by the relaxation of supercoiled DNA (pEGFP-N1) as the manufacturer’s instructions indicated. Briefly, human recombinant TOP1 and buffer assay were obtained from Sigma-Aldrich (St. Louis, MO, USA). […]
Figure 7 The effect of sesquiterpene aryl esters on TOP1- and TOP2-induced DNA relaxation was assessed. (A) The TOP1 inhibition assay evaluated the compounds (10c, 11c, 12c, 13c, and 14c) at a concentration of 20 μM in a DNA relaxation assay. […]

SMILES | IC50 (MCF-7 cells) | Selectivity Index (SI) (MCF-7 cells) | inhibition of TOP1-induced DNA relaxation (human topoisomerase I)
COc1ccc(/C=C2\C(C)=CCC3C(C)(C)CCC[C@]23C)cc1OC (stereo partly drawn) [Compound 13c, (4aS)-5-((E)-3,4-Dimethoxybenzylidene)-1,1,4a,6-tetramethyl-1,2,3,4,4a,5,8,8a-octahydronaphthalene] | 22.5 ± 2.6 µM | 6.0 | 
COc1cc2c(cc1OC)[C@]1(C)CCC3C(C)(C)CCC[C@]3(C)C1=C2 (stereo partly drawn) [Compound 14c, (6aR,11bS)-8,9-Dimethoxy-4,4,6a,11b-tetramethyl-2,3,4,4a,5,6,6a,11b-octahydro-1H-benzo[a]fluorene] | 9 ± 2.8 µM | 44 | did not show significant inhibition
